From US12344597B2, “Alkoxy-substituted pyridinyl derivatives as LPA1 receptor antagonists and their use in the treatment of fibrosis” (IDORSIA PHARMACEUTICALS LTD, priority 2018, dated 2025) come the findings set out here.

As usually defined, the IC50 is the point on the concentration scale where inhibition reaches its midpoint. High values mean lower potency, low ones higher potency.

Where a name gives a salt, the structure may show the parent alone.

human LPA1 receptor, sequence (Q92633 whole entry, the tested form may be a part): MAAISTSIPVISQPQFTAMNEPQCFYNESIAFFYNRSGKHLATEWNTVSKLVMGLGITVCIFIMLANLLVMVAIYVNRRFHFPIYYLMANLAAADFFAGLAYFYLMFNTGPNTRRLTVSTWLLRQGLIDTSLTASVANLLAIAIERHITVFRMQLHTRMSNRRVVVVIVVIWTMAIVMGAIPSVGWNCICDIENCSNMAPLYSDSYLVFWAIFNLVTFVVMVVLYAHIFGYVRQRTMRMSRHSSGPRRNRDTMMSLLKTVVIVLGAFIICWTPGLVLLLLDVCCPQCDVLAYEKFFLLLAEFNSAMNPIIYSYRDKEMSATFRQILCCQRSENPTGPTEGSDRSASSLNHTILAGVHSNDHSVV

The assay addresses human LPA1 receptor (Homo sapiens (Human), UniProt Q92633). The assay is described as follows: Beta-arrestin recruitment assay to determine IC50 values for human LPAR1. The conditions noted are these: antagonist mode, Tango EDG2-bla U2OS cells, LPA 18:1 500 nM final. Format: cell-based. A digest of the protocol: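 Tango EDG2-bla U2OS cells: LPA-driven beta-arrestin/TEV protease recruitment releases Gal4-VP16, inducing beta-lactamase reporter read with live-cell substrate. Cells seeded 20 h at 37 °C beforehand. IC50 is antagonist concentration inhibiting 50% of maximal response.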
A general note: Activated receptors often draw arrestin, which recruitment assays turn into a signal.
For `Cc1ccc(NC(=O)C2(c3ccccc3C(C)C)CN(CC3(CO)COC3)C2)c(OC(F)F)n1` [Ex 11-89, N-(2-(difluoromethoxy)-6-methylpyridin-3-yl)-1-((3-(hydroxymethyl)oxetan-3-yl)methyl)-3-(2-isopropylphenyl)azetidine-3-carboxamide], the IC50 worked out at 73 nM.

The molecule `Cc1ccc(NC(=O)C2(c3ccccc3C(C)C)CN(C(=O)N[C@H](C(=O)O)C(C)C)C2)c(OC(F)F)n1` [Ex 17-7, (3-((2-(difluoromethoxy)-6-methylpyridin-3-yl)carbamoyl)-3-(2-isopropylphenyl)azetidine-1-carbonyl)-L-valine] registered an IC50 of 26 nM.

In turn, `CC(C)c1ccccc1C1(C(=O)Nc2cccnc2OC(F)F)CNC1` [Ex 7, N-(2-(difluoromethoxy)pyridin-3-yl)-3-(2-isopropylphenyl)azetidine-3-carboxamide hydrochloride] returned an IC50 of 413 nM.

For `COC(=O)C(C)(C)CCN1CC(C(=O)Nc2ccc(C)nc2OC(F)F)(c2ccccc2C(C)C)C1` [Ex 11-30, methyl 4-(3-((2-(difluoromethoxy)-6-methylpyridin-3-yl)carbamoyl)-3-(2-isopropylphenyl)azetidin-1-yl)-2,2-dimethylbutanoate], inhibition was half-maximal at 98 nM (IC50).

For the molecule `Cc1ccc(NC(=O)C2(c3ccccc3C(C)C)CN(CC3CCC(C(=O)O)CC3)C2)c(OC(F)F)n1` (stereo not drawn) [Ex 41, 4-((3-((2-(difluoromethoxy)-6-methylpyridin-3-yl)carbamoyl)-3-(2-isopropylphenyl)azetidin-1-yl)methyl)cyclohexane-1-carboxylic acid], the IC50 was determined as 96 nM. This IC50 and that of the molecule before are within 1.5-fold of each other.

Take `Cc1ccc(NC(=O)C2(c3ccccc3C(C)C)CN(Cc3cn(CC(=O)O)nn3)C2)c(OC(F)F)n1` [Ex 11-49, 2-(4-((3-((2-(difluoromethoxy)-6-methylpyridin-3-yl)carbamoyl)-3-(2-isopropylphenyl)azetidin-1-yl)methyl)-1H-1,2,3-triazol-1-yl)acetic acid]: the IC50 is 547 nM. Compared with the last molecule, the IC50 is about 5.7-fold higher.

On to `Cc1ccc(NC(=O)C2(c3ccccc3C(C)C)CN(C(=O)CCn3cnnc3)C2)c(OC(F)F)n1` [Ex 12-28, 1-(3-(4H-1,2,4-triazol-4-yl)propanoyl)-N-(2-(difluoromethoxy)-6-methylpyridin-3-yl)-3-(2-isopropylphenyl)azetidine-3-carboxamide], for which the IC50 was 222 nM.

Turning to `Cc1ccc(NC(=O)C2(c3ccccc3C(C)C)CN(CCOCC(=O)O)C2)c(OC(F)F)n1` [Ex 11-75, 2-(2-(3-((2-(difluoromethoxy)-6-methylpyridin-3-yl)carbamoyl)-3-(2-isopropylphenyl)azetidin-1-yl)ethoxy)acetic acid], the IC50 was 29 nM.

For `Cc1ccc(NC(=O)C2(c3ccccc3C(C)C)CN(C(=O)/C=C\C(=O)O)C2)c(OC(F)F)n1` [Ex 12-77, (Z)-4-(3-((2-(difluoromethoxy)-6-methylpyridin-3-yl)carbamoyl)-3-(2-isopropylphenyl)azetidin-1-yl)-4-oxobut-2-enoic acid], the IC50 came out at 31 nM. This IC50 and that of the molecule before are within 1.5-fold of each other.

In the case of `Cc1ccc(NC(=O)C2(c3ccccc3C3CCCCC3)CN(C(=O)CC(C)(C)C(=O)O)C2)c(OC(F)F)n1` [Ex 31-5, 4-(3-(2-cyclohexylphenyl)-3-((2-(difluoromethoxy)-6-methylpyridin-3-yl)carbamoyl)azetidin-1-yl)-2,2-dimethyl-4-oxobutanoic acid], the IC50 amounted to 14 nM. Against the preceding molecule, the IC50 is about 2.2-fold lower.

On to `Cc1ccc(NC(=O)C2(c3ccccc3C(C)C)CN(c3cc(C(=O)O)ncn3)C2)c(OC(F)F)n1` [Ex 18-13, 6-(3-((2-(difluoromethoxy)-6-methylpyridin-3-yl)carbamoyl)-3-(2-isopropylphenyl)azetidin-1-yl)pyrimidine-4-carboxylic acid], for which half-maximal inhibition (IC50) required 17 nM.

The molecule `Cc1ccc(NC(=O)C2(c3ccccc3C(C)C)CN(C(=O)N[C@@H](C)C(=O)O)C2)c(OC(F)F)n1` [Ex 17-9, (3-((2-(difluoromethoxy)-6-methylpyridin-3-yl)carbamoyl)-3-(2-isopropylphenyl)azetidine-1-carbonyl)-L-alanine] gave an IC50 of 48 nM.

`COC(=O)CC1(CN2CC(C(=O)Nc3ccc(C)nc3OC(F)F)(c3ccccc3C(C)C)C2)CC1` [Ex 11-67, Methyl 2-(1-((3-((2-(difluoromethoxy)-6-methylpyridin-3-yl)carbamoyl)-3-(2-isopropylphenyl)azetidin-1-yl)methyl)cyclopropyl)acetate]: the IC50 turned out to be 326 nM.

As to “Methyl 4-(3-((5-bromo-3-(difluoromethoxy)pyridin-2-yl)carbamoyl)-3-(2-isopropylphenyl)azetidin-1-yl)-2,2-dimethyl-4-oxobutanoate [Ex 79-2]”, the midpoint of inhibition, the IC50, lay at 11 nM.

For the molecule `COC(=O)[C@H](C)NC(=O)N1CC(C(=O)Nc2ccc(C)nc2OC(F)F)(c2ccccc2C(C)C)C1` [Ex 17-8, methyl (3-((2-(difluoromethoxy)-6-methylpyridin-3-yl)carbamoyl)-3-(2-isopropylphenyl)azetidine-1-carbonyl)-L-alaninate], the midpoint of inhibition, the IC50, lay at 4 nM.

`COc1cnc(NC(=O)C2(c3ccccc3C(C)C)CNC2)c(OC)c1` [Ex 75, N-(3,5-dimethoxypyridin-2-yl)-3-(2-isopropylphenyl)azetidine-3-carboxamide]: it took 4380 nM to reach half-maximal inhibition (IC50).

Consider `Cc1ccc(NC(=O)C2(c3ccccc3C(C)C)CN(C(=O)CC3CCN(CCF)CC3)C2)c(OC(F)F)n1` [Ex 12-141, N-(2-(difluoromethoxy)-6-methylpyridin-3-yl)-1-(2-(1-(2-fluoroethyl)piperidin-4-yl)acetyl)-3-(2-isopropylphenyl)azetidine-3-carboxamide], for which it took 204 nM to reach half-maximal inhibition (IC50).

Molecule `CNC(C)(C)CN1CC(C(=O)Nc2ccc(C)nc2OC(F)F)(c2ccccc2C(C)C)C1` [Ex 11-64, N-(2-(difluoromethoxy)-6-methylpyridin-3-yl)-3-(2-isopropylphenyl)-1-(2-methyl-2-(methylamino)propyl)azetidine-3-carboxamide] returned an IC50 of 63 nM. Compared with the last molecule, the IC50 is about 3.2-fold lower.

`Cc1ccc(NC(=O)C2(c3ccccc3C(C)C)CN(S(=O)(=O)c3[nH]ncc3C(=O)O)C2)c(OC(F)F)n1` [Ex 13-25, 5-((3-((2-(difluoromethoxy)-6-methylpyridin-3-yl)carbamoyl)-3-(2-isopropylphenyl)azetidin-1-yl)sulfonyl)-1H-pyrazole-4-carboxylic acid] had an IC50 of 400 nM.

With `Cc1ccc(NC(=O)C2(c3ccccc3C(C)C)CN(C(=O)[C@@H]3CCC[C@H](C(=O)O)C3)C2)c(OC(F)F)n1` [Ex 51, (1S,3R)-3-(3-((2-(difluoromethoxy)-6-methylpyridin-3-yl)carbamoyl)-3-(2-isopropylphenyl)azetidine-1-carbonyl)cyclohexane-1-carboxylic acid], inhibition was half-maximal at 80 nM (IC50).

For the molecule “N-(2-(difluoromethoxy)-6-methylpyridin-3-yl)-1-(3-(N-hydroxyacetamido)propanoyl)-3-(2-isopropylphenyl)azetidine-3-carboxamide [Ex 12-130]”, the IC50 worked out at 48 nM. This IC50 is about 1.7-fold lower than that of the molecule before.

Regarding `COC(=O)c1cnc(CN2CC(C(=O)Nc3ccc(C)nc3OC(F)F)(c3ccccc3C(C)C)C2)cn1` [Ex 11-54, methyl 5-((3-((2-(difluoromethoxy)-6-methylpyridin-3-yl)carbamoyl)-3-(2-isopropylphenyl)azetidin-1-yl)methyl)pyrazine-2-carboxylate], it took 95 nM to reach half-maximal inhibition (IC50).

Regarding `Cc1ccc(NC(=O)C2(c3ccccc3C(C)C)CN(S(=O)(=O)CC(C)(C)C(=O)O)C2)c(OC(F)F)n1` [Ex 13-12, 3-((3-((2-(difluoromethoxy)-6-methylpyridin-3-yl)carbamoyl)-3-(2-isopropylphenyl)azetidin-1-yl)sulfonyl)-2,2-dimethylpropanoic acid], inhibition was half-maximal at 4 nM (IC50).

Take `Cc1ccc(NC(=O)C2(c3ccccc3C(C)C)CN(Cc3coc(C)n3)C2)c(OC(F)F)n1` [Ex 11-21, N-(2-(difluoromethoxy)-6-methylpyridin-3-yl)-3-(2-isopropylphenyl)-1-((2-methyloxazol-4-yl)methyl)azetidine-3-carboxamide]: the IC50 was 60 nM.

The molecule `Cc1ccc(NC(=O)C2(c3ccccc3C(C)C)CN(C(=O)C[C@@H](O)CC(=O)O)C2)c(OC(F)F)n1` [Ex 12-105, (R)-5-(3-((2-(difluoromethoxy)-6-methylpyridin-3-yl)carbamoyl)-3-(2-isopropylphenyl)azetidin-1-yl)-3-hydroxy-5-oxopentanoic acid] yielded an IC50 of 54 nM.

For the molecule `CC(=O)NS(=O)(=O)N1CC(C(=O)Nc2ccc(C)nc2OC(F)F)(c2ccccc2C(C)C)C1` [Ex 16-1, 1-(N-acetylsulfamoyl)-N-(2-(difluoromethoxy)-6-methylpyridin-3-yl)-3-(2-isopropylphenyl)azetidine-3-carboxamide], the IC50 turned out to be 69 nM. This IC50 and that of the molecule before are within 1.5-fold of each other.

In turn, `Cc1ccc(NC(=O)C2(c3ccccc3C(C)C)CN(Cc3cccn3CC(=O)O)C2)c(OC(F)F)n1` [Ex 11-42, 2-(2-((3-((2-(difluoromethoxy)-6-methylpyridin-3-yl)carbamoyl)-3-(2-isopropylphenyl)azetidin-1-yl)methyl)-1H-pyrrol-1-yl)acetic acid] yielded an IC50 of 43 nM. Compared with the last molecule, the IC50 is about 1.6-fold lower.

`COC(=O)CS(=O)(=O)N1CCC(C(=O)Nc2ccc(C)nc2OC(F)F)(c2ccccc2C(C)C)CC1` [Ex 13-2, methyl 2-((4-((2-(difluoromethoxy)-6-methylpyridin-3-yl)carbamoyl)-4-(2-isopropylphenyl)piperidin-1-yl)sulfonyl)acetate] showed a half-maximal inhibitory concentration (IC50) of 7 nM.

For `Cc1ccc(NC(=O)C2(c3ccccc3C(C)C)CN(c3ncncc3F)C2)c(OC(F)F)n1` [Ex 18-20, N-(2-(difluoromethoxy)-6-methylpyridin-3-yl)-1-(5-fluoropyrimidin-4-yl)-3-(2-isopropylphenyl)azetidine-3-carboxamide], the midpoint of inhibition, the IC50, lay at 2 nM.

`COC(=O)C(C)(C)COC(=O)N1CC(C(=O)Nc2ccc(C)nc2OC(F)F)(c2ccccc2C(C)C)C1` [Ex 14-9, 3-methoxy-2,2-dimethyl-3-oxopropyl 3-((2-(difluoromethoxy)-6-methylpyridin-3-yl)carbamoyl)-3-(2-isopropylphenyl)azetidine-1-carboxylate] returned an IC50 of 42 nM.
